In US10112918B2, “15-oxospiramilactone derivatives, preparation method and uses thereof” (Kunming Institute of Botany, The Chinese Academy of Sciences, priority 2013, dated 2018):
Read-outs that look alike come from different tables or passages of the source.

Assays:
Type in all cases: cell-based
[1] = tested on: A-549 (Human lung adenocarcinoma cells); test: MTT inhibition of tumor cell growth, A-549; conditions: Homo sapiens
Procedure: (§1) 1. Inoculating cells: the culture medium DMEM or RMPI1640 containing 10% fetal bovine serum was used to prepare a single cell suspension, and the cell suspension was inoculated to a 96-well plate at 5000-10000 cells per well (100 μl for each well); Adherent cells were inoculated and cultured for 12 h in advance. HL-60 (human promyelocytic leukemia cells), SMMC-7721 (human hepatoma cells), A-549 (Human lung adenocarcinoma cells), MCF-7 (human breast cancer cells), SW-480 (human colon cancer cells) were purchased from the Cell Bank of the Chinese Academy of Sciences, Shanghai.
(§2) 2. The solution of the compound to be tested (40 μM for primary screening; 5 concentrations were set for gradient re-screening for the compounds which achieve about 50% inhibition of tumor cell growth at 40 μM) was added, the final volume of each well was 200 μl, and triplicate wells were set for each test.
(§3) 3. Coloration: After culturing at 37° C. for 48 h, MTT solution (20 μl) was added to each well. After incubation for another 4 h, the culture was stopped. The supernatant in each well was pipetted and discarded, and 200 μl SDS solution (10%) was added to each well. Incubation was performed overnight (at 37° C.), to completely dissolve the crystal.
(§4) 4. Colorimetric assay: ELISA Reader (Bio-Rad 680) was used to obtain the light absorption for each well at a wavelength of 595 nm, the results were recorded. A cell growth curve was plotted with the concentration as abscissa and the cell survival percentage as ordinate. The two-point method (Reed and Muench method) was used to calculate the IC50 of the compound.

[2] = tested on: Wnt signaling pathway (Top-Flash reporter gene); test: Top-Flash Wnt reporter gene assay in HEK293T cells with Wnt3a conditioned medium; conditions: Homo sapiens, HEK-293T, 6 h
Procedure: HEK293T cells were cultured in DMEM containing 10% fetal bovine serum (Invitrogen) at 37° C., 5% CO2. The cells were passaged every other day. The density was retained at 70˜80% during passage. L cell line (CRL-2647, purchased from the gene bank of ATCC, the US) and the control cell line (CRL-2648, purchased from ATCC, US), which stably secreted mouse Wnt3a protein, were cultured in DMEM containing 50 ug/ml G418 and 10% fetal bovine serum, at 37° C., 5% CO2. When the cells grew to a density of about 70%, the medium was replaced with DMEM containing 10% fetal bovine serum. After continuous culture for 4 days, the culture was collected and centrifuged, and the supernatant was kept so that the Wnt conditioned medium was obtained. After titration assay, the conditioned medium was quick-frozen in liquid nitrogen, and placed at −80° C. for long-term storage, so that the titer was kept unchanged.
The cells were seeded to a 48-well plate at a density of […] cells per well, and transfected 20 h later. The reagents for plasmid transfection were calculated based on the amount in each well of the 48-well plate as following: the total amount of plasmid was 125 ng/well; the plasmid was first added to a serum-free medium (25 μL/well) and mixed well; PLUS reagent (Invitrogen) was then added in an amount of 0.5 μL/well and mixed well, then stood for 15 min; Lipofectamine (Invitrogen) liposome was added in an amount of 0.5 μL/well to serum-free DMEM medium (25 μL/well), and then mixed with the solution containing the plasmid and the PLUS, and stood for 15 min. The cells were cultured in serum-free DMEM medium (100 μL/well), and the final mixture of plasmid, PLUS and Lipofectamine were added to the cells. After incubation for 3 h, the transfection was stopped by the medium containing 10% fetal bovine serum (200 μL/well).
The HEK293T cells used for activity assay of the report gene were transfected by the method as shown in 2). Activity assay of Wnt reporter gene: the amount of plasmid for transfection was 5 ng/well for TOP-flash and 5 ng/well for GFP plasmid as internal standard, with lacZ added to reach a total amount of 125 ng/well. […] After treating for 6 h, Boehringer Mannheim Luci-ferase Assay Kit was used to lyse cells (200 μL/well). 50 μL from each well was pipetted into a 96-well plate. The indensity of GFP protein in the cell lysate was measured by fluorimeter FL600 (BIO-TEK Inc. Winooski, Vt.), and taken as internal standard for cell transfection efficiency. 10 μL substrate of luciferase was then added to each well, and the activity of luciferase was measured by Micro Lumate Plus (Perkin Elmer Inc. Wellesley, Mass.) luminometer. Finally, GFP indensity was used as internal standard to calibrate the activity of luciferase, i.e. the activity of Wnt reporter gene.
Calculation of IC50 (taking the calculation of IC50 of the Wnt signaling pathway for example): background (the activity as measured in the groups treated with a conditioned medium containing DMSO only) was subtracted from the reporter gene activity as measured in the groups treated by Wnt3a conditioned medium with or without the compound to be tested at different concentrations; and the obtained value was defined as the activity of the reporter gene induced by Wnt or the residual activity of the reporter gene after adding the compound to be tested. The residual activity was normalized by the activity induced by Wnt to get the relative residual activity. Then combine with the concentrations of the compound to be tested to plot a linear graph, and a dose-effect curve was fitted based on 4-parameter logistic fit. IC50 of the Wnt signaling pathway is determined as the concentration at which the relative residual activity is 0.5.

[3] = tested on: HL-60 (human promyelocytic leukemia cells); test: MTT inhibition of tumor cell growth, HL-60; conditions: Homo sapiens
Procedure: as §1, §2, §3, §4

[4] = tested on: SW-480 (human colon cancer cells); test: MTT inhibition of tumor cell growth, SW-480; conditions: Homo sapiens
Procedure: as §1, §2, §3, §4

[5] = tested on: MCF-7 (human breast cancer cells); test: MTT inhibition of tumor cell growth, MCF-7; conditions: Homo sapiens
Procedure: as §1, §2, §3, §4

[6] = tested on: SMMC-7721 (human hepatoma cells); test: MTT inhibition of tumor cell growth, SMMC-7721; conditions: Homo sapiens
Procedure: as §1, §2, §3, §4

[7] = A549, 48 h, Table 1, 7-hydroxy derivatives of S-3
[8] = Table 7 (second), derivatives modified on 7-hydroxyl of S-3, HEK293T, Wnt3a conditioned medium, read-out: IC50 (μM), inhibitory activity on the Wnt signaling pathway
[9] = HL-60, 48 h, Table 1, 7-hydroxy derivatives of S-3
[10] = SW480, 48 h, Table 1, 7-hydroxy derivatives of S-3, read-out: IC50 SW-480
[11] = MCF7, 48 h, Table 1, 7-hydroxy derivatives of S-3
[12] = SMMC-7721, 48 h, Table 1, 7-hydroxy derivatives of S-3
[13] = A549, 48 h, Table 2, derivatives having potential Michael reaction acceptor
[14] = HL-60, 48 h, Table 2, derivatives having potential Michael reaction acceptor
[15] = SW480, 48 h, Table 2, derivatives having potential Michael reaction acceptor, read-out: IC50 SW-480
[16] = MCF7, 48 h, Table 2, derivatives having potential Michael reaction acceptor
[17] = SMMC-7721, 48 h, Table 2, derivatives having potential Michael reaction acceptor
[18] = Table 9, HEK293T, Wnt3a conditioned medium, read-out: IC50(μM), inhibitory activity on the Wnt signaling pathway

Compound	IC50 [1, 7]	IC50 [2, 8]	IC50 [3, 9]	IC50 [4, 10]	IC50 [5, 11]	IC50 [6, 12]	other results
C=C1C(=O)C23CC[C@H]1CC2[C@@]12CCC[C@@](C)(COC1=O)C2C[C@H]3OC(=O)c1cccs1 (stereo partly drawn) [Compound 1o]	–	–	–	–	–	–	IC50 ([1]; A549, Table 1, 7-hydroxy derivatives of S-3, 48 h): 0.49 µM; IC50 ([2]; read-out: IC50 (μM), inhibitory activity on the Wnt signaling pathway): 9.15 ± 1.14 µM; IC50 ([3]; HL-60, Table 1, 7-hydroxy derivatives of S-3, 48 h): 0.84 µM; IC50 ([4]; SW480, Table 1, 7-hydroxy derivatives of S-3, 48 h, read-out: IC50 SW-480): 0.56 µM; IC50 ([5]; MCF7, Table 1, 7-hydroxy derivatives of S-3, 48 h): 1.26 µM; IC50 ([6]; SMMC-7721, Table 1, 7-hydroxy derivatives of S-3, 48 h): 0.6 µM
C=C1C(=O)C23CC[C@H]1CC2[C@@]12CCC[C@@](C)(COC1=O)C2C[C@H]3OC(=O)/C=C/c1ccccc1 (stereo partly drawn) [Compound 1p]	0.79 µM	18.6 ± 1.26 µM	1.24 µM	2.16 µM	3.4 µM	1.79 µM	–
C=C1C(=O)C23CC[C@H]1CC2[C@@]12CCC[C@@](C)(COC1=O)C2C[C@H]3OS(C)(=O)=O (stereo partly drawn) [Compound 1q]	4.17 µM	15.1 ± 2.89 µM	5.15 µM	3.43 µM	3.82 µM	10.5 µM	–
C=C1C(=O)C23CC[C@H]1CC2[C@@]12CCC[C@@](C)(COC1=O)C2C[C@H]3OS(=O)(=O)Cc1ccccc1 (stereo partly drawn) [Compound 1r]	0.49 µM	8.92 ± 0.98 µM	0.58 µM	1.17 µM	2.06 µM	0.57 µM	–
C=C1C(=O)C23CC[C@H]1CC2[C@@]12CCC[C@@](C)(COC1=O)C2C[C@H]3OS(=O)(=O)c1ccccc1 (stereo partly drawn) [Compound 1s]	2.69 µM	12.4 ± 1 µM	3.53 µM	2.89 µM	4.18 µM	3.83 µM	–
C=C1C(=O)[C@]23CC[C@H]1CC2[C@@]12CCC[C@@](C)(COC1=O)C2C[C@H]3OS(=O)(=O)c1ccc(Cl)cc1 (stereo partly drawn) [Compound 1t]	2.94 µM	14.4 ± 2.28 µM	3.36 µM	1.91 µM	3.19 µM	3.64 µM	–
C=C1C(=O)[C@]23CC[C@H]1CC2[C@@]12CCC[C@@](C)(COC1=O)C2C[C@H]3S(=O)(=O)c1ccccc1[N+](=O)[O-] (stereo partly drawn) [Compound 1u]	6.69 µM	> 60 µM	6.63 µM	18.4 µM	9.05 µM	23.4 µM	–
C=C1C(=O)[C@]23CC[C@H]1CC2[C@@]12CCC[C@@](C)(COC1=O)C2C[C@@H]3S(=O)(=O)c1ccccc1[N+](=O)[O-] (stereo partly drawn) [Compound 1v]	16.6 µM	> 60 µM	9.64 µM	14.7 µM	11.1 µM	26.9 µM	–
C=C1C(=O)[C@]23CC[C@H]1CC2[C@@]12CCC[C@@](C)(COC1=O)C2CC3=O (stereo partly drawn) [Compound 7]	–	12.1 ± 1.88 µM	–	–	–	–	IC50 [1, 13]: 3.16 µM; IC50 ([2]; Table 8, HEK293T, Wnt3a conditioned medium, read-out: IC50 (μM), inhibitory activity on the Wnt signaling pathway): 12.1 µM; IC50 [3, 14]: 4.56 µM; IC50 [4, 15]: 3.74 µM; IC50 ([4]; SW480, 48 h, Table 6, 7-carbonyl derivatives, read-out: IC50 SW-480, 7-carbonyl derivatives): 2.63 µM; IC50 [5, 16]: 4.61 µM; IC50 [6, 17]: 4.72 µM
C=C1C(=O)[C@@]23CC[C@@H](CC2[C@@]24CCC[C@@](C)(COC2=O)C14)C(=C)C3=O (stereo partly drawn) [Compound 8]	–	–	–	–	–	–	IC50 ([1]; A549, 48 h, Table 5, derivatives having double Michael reaction acceptor): 0.59 µM; IC50 [2, 18]: 4.09 ± 0.07 µM; IC50 ([3]; HL-60, 48 h, Table 5, derivatives having double Michael reaction acceptor): 2.02 µM; IC50 ([4]; SW480, 48 h, Table 5, derivatives having double Michael reaction acceptor, read-out: IC50 SW-480): 0.66 µM; IC50 ([4]; SW480, 48 h, Table 6, double Michael reaction acceptor derivatives, read-out: IC50 SW-480, derivatives having double Michael reaction acceptor): 0.45 µM; IC50 ([5]; MCF7, 48 h, Table 5, derivatives having double Michael reaction acceptor): 0.96 µM; IC50 ([6]; SMMC-7721, 48 h, Table 5, derivatives having double Michael reaction acceptor): 0.72 µM
C=C1C(=O)[C@]23CC[C@H]1CC2[C@@]12CCC[C@@](C)(COC1=O)C2[C@H](CN1CCOCC1)C3=O (stereo partly drawn) [Compound 9]	–	–	–	–	–	–	IC50 [1, 13]: 2.8 µM; IC50 [2, 18]: 8.56 ± 1.15 µM; IC50 [3, 14]: 4.43 µM; IC50 [4, 15]: 7.77 µM; IC50 [5, 16]: 3.55 µM; IC50 [6, 17]: 3.53 µM
C=C1C(=O)[C@]23CC[C@H]1CC2[C@@]12CCC[C@@](C)(COC1=O)C2C(CN(C)C)C3=O (stereo partly drawn) [Compound 10]	–	–	–	–	–	–	IC50 [1, 13]: 0.83 µM; IC50 [2, 18]: 9.54 ± 1.34 µM; IC50 [3, 14]: 3.41 µM; IC50 [4, 15]: 1.03 µM; IC50 [5, 16]: 1.18 µM; IC50 [6, 17]: 0.71 µM
